Reference: patent US9986723B2, “Screen and use of therapeutics for pancreatic ductal adenocarcinoma” (The Board of Regents of the University of Texas System, priority 2014, dated 2018)

Tests used:
AKT = experiment: Gas6-induced phosphorylated Akt in Panc1 cells; format: cell-based, human; conditions: warfarin 1 μM, Gas6 1.3 nM
Procedure: (§1) (FIG. 24A) HEK293 cells engineered to stably express recombinant Gas6 were grown in the presence of Vitamin K or Vitamin K+warfarin. Gas6 levels and γ-carboxylation were assayed by immunoblotting conditioned media. Conditioned media from untransfected HEK293 cells was used as a negative control. (FIG. 24B) Panc1 cells were grown overnight in media with 1% serum with no additions (NT), warfarin (2 μM) or BGB324 (2 μM). Lysates were probed for total Axl (tAxl) and phosphorylated Axl (pAxl). (FIG. 24C) Panc1 cells were grown in the presence of control media, Vitamin K, warfarin or warfarin+Vitamin K. The level of phosphorylated Axl (pAXL, red) was determined by immunofluorescence. (FIG. 24D) Panc1 cells were grown overnight in media with 1% serum with no additions (control), warfarin (1 μM), Gas6 (1.3 nM) or Gas6+warfarin. Lysates were probed for phosphorylated Akt (pAkt) and actin. (FIG. 24E) Lysates from Panc1 tumors harvested from mice treated with control or warfarin were probed for expression of tAxl, pAxl, actin, pAKT, tAKT, and cleaved Parp. (FIG. 24F) The effect of warfarin on cell migration was assessed by a ‘scratch’ assay. Monolayers of the indicted cells were wounded with a pipet tip. The cells were incubated in media containing 2% serum+/−warfarin (2 μM) or media containing 2% serum+Gas6 (1.3 nM)+/−warfarin.

Gas6 = Gas6 γ-carboxylation in conditioned media of HEK293 cells expressing recombinant Gas6 (immunoblot); format: cell-based; conditions: Vitamin K + warfarin, in vitro
Procedure: as §1

[1] = system: PanIN and PDA tumor growth in KIC mice; experiment: Two week in vivo assay in Rgs16::GFP;KIC mice, Rgs16::GFP intensity at P29; parameters: species or system mouse
Text: Fluorescent microscopy and GFP quantification. Pancreatic expression of Rgs16::GFP in GFP-PDA mice was quantified using a Zeiss Lumar microscope. Images were captured using a single-channel camera (Hamamatsu) in 1344×1024 resolution with 1 sec exposure under 48× magnification with 1×1 binning, analog gain=10, and analog offset=2 settings. Pancreatic fields representing the tumor burden (3-4 fields for P15 pups and 5 or more for pups from P23 onwards) of the pancreas were imaged covering up to 50% of the organ surface area. All images were saved in gray-scale 16-bit tiff format. Images were quantified using NIH ImageJ software with background subtraction with a radius of 50 pixels. A variable and tight threshold was set to eliminate residual background. Intensities of all particles with size ≥5 pixels were summed to obtain the total light intensity per image.
Drug dosages. GFP-PDA mice were injected intraperitoneally with gemcitabine (Eli Lilly; Indianapolis, Ind., USA) (12.5 mg/kg/day given 3 days/week, dissolved in PBS), Abraxane (Cellgene; Summit, N.J., USA) (5 mg/kg/day given 2 days/week, diluted in 2% saline solution), BGB324 (BerGenBio, Bergen, Norway) (5 mg/kg/day given 5 days/week, dissolved in a mix of DMSO:ethanol:Kolliphor EL:water with 4:4:8:84 v/v ratio), and warfarin (0.2 mg/kg/day given 5 days/week, dissolved in PBS) according to injection schedules specified below. These doses were validated in prior mouse studies (Dineen et al., 2010; Kutluk Cenik et al., 2013; Ostapoff et al., 2013; Aguilera et al., 2014; Ostapoff et al., 2014). […] To verify tumor progression remains constant over the duration of these experiments, assays of untreated mice were interspersed with drug-treated cohorts, and warfarin-treated pups were the final cohort the inventors tested. Gemcitabine, Abraxane and warfarin were purchased from the UT Southwestern clinical pharmacy; BGB324 was a gift from BerGenBio.
Statistical analysis of GFP expression. GFP values were converted to log10 scale prior to statistical analysis. Graphs and their statistical comparisons were done using Graphpad Prism software with unpaired and two-tailed Student's t test. Significance between groups was indicated as ns (not significant); *p<0.05; **p<0.01; ***p<0.001; ****p<0.0001. Error bars in all the graphs are standard error mean (SEM). See FIGS. 7-8 for additional statistical analysis.
The therapeutic screening strategy was to treat KIC pups between P15-P28 (when PanIN and PDA are in rapid expansion) with anticancer drugs, sacrifice mice at P29, and capture Rgs16::GFP intensity with a dissection fluorescence microscope. Images of the five brightest non-overlapping fields of Rgs16::GFP expression were then collected, representing the regions of greatest tumor burden (FIGS. 17A-C).

[2] = system: orthotopic C5LM2 or Mia PaCa-2 tumors; experiment: Gemcitabine combinations in mice bearing established orthotopic tumors; format: in vivo, mouse; conditions: combined with gemcitabine
Text: Animal studies. All animals were housed in a pathogen-free facility with 24-hour access to food and water. Experiments were approved by, and conducted in accordance with, an IACUC approved protocol at UT Southwestern. LSL-Kras^G12D; Cdkn2a^lox/lox; p48^Cre (KIC) mice were generated as previously described (Ostapoff et al., 2014). Four- to 6-week-old female NOD/SCID and C57/B16 mice were obtained from an on campus supplier. A total of 1×10^6 AsPc-1, Panc-1, Mia Paca2, Capan-1, C5LM2, Mia shLuc and Mia shAxl or 5×10^5 Pan02 cells, were injected orthotopically as described (Ostapoff et al., 2014). Mice with established tumors, as determined by sonography were randomized to receive normal drinking water or water containing 1 mg/L (˜3.0 μM) warfarin for experiments in immunocompromised mice and 0.5 mg/L (˜1.5 μM) in experiments in immunocompetent animals with or without gemcitabine 25 mg/kg twice weekly depending on experimental design.

Compound: CC(=O)CC(c1ccccc1)c1c(O)c2ccccc2oc1=O (racemic) [Warfarin]
- Gas6-induced activation of AKT (AKT): inhibited
- γ-carboxylation of Gas6 (Gas6): prevented
- effect on PanIN lesions and PDA tumor growth (Rgs16::GFP expression) ([1]; KIC mice treated P15-P28, i.p., sacrificed P29): no effect
- mice with at least one field in the lower 1% ile of all untreated fields ([1]; P29, untreated 7%): 19%
- mice with at least one field of Rgs16::GFP expression in pancreas greater than the upper 95% ile of all untreated fields ([1]; P29, untreated 14%): 13%
- augmentation of gemcitabine reduction of primary tumor growth and metastatic control [2]: augmented gemcitabine reduction of primary tumor growth
